Measurements: ChEMBL document CHEMBL1201862, “PubChem BioAssay data set” (2004)
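Cultured in 96-well plates, cells were exposed to test compound for 48 hours across five concentrations. GI50: concentration for 50% inhibition of growth.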 Active and inactive are the calls of the source. No stated cut-off is given here; in the data, active = GI50 up to about 1.1 µM and inactive = higher.

Tests used:
Test in all cases: inhibition of tumour cell growth, NCI panel, 48 h
[1] = tested on: U-251
[2] = tested on: UACC-62
[3] = tested on: Hs-578T
[4] = tested on: HOP-62
[5] = tested on: TK-10
[6] = tested on: SF-539
[7] = tested on: KM12
[8] = tested on: CCRF-CEM
[9] = tested on: ACHN
[10] = tested on: HOP-92
[11] = tested on: Malme-3M
[12] = tested on: M14
[13] = tested on: SK-OV-3
[14] = tested on: NCI/ADR-RES
[15] = tested on: SW-620
[16] = tested on: COLO 205
[17] = tested on: OVCAR-5
[18] = tested on: SK-MEL-5
[19] = tested on: A549
[20] = tested on: 786-0

SMILES	GI50 [1]	GI50 [2]	GI50 [3]	GI50 [4]	GI50 [5]	GI50 [6]	GI50 [7]	GI50 [8]	GI50 [9]	GI50 [10]	GI50 [11]	GI50 [12]	GI50 [13]	GI50 [14]	GI50 [15]	GI50 [16]	GI50 [17]	GI50 [18]	GI50 [19]	GI50 [20]
O=C(Nc1nc2ncn(CCOC(=O)c3ccccc3)c2c(=O)[nH]1)c1ccccc1	7.24 µM (inactive)	9.12 µM (inactive)	13.1 µM (inactive)	20.4 µM (inactive)	> 100 µM (inactive)	10.8 µM (inactive)	3.34 µM (inactive)	9.71 µM (inactive)	> 81.1 µM (inactive)	25.6 µM (inactive)	42.3 µM (inactive)	15.3 µM (inactive)	> 50.7 µM (inactive)	66.2 µM (inactive)	4.98 µM (inactive)	8.47 µM (inactive)	> 100 µM (inactive)	5.51 µM (inactive)	8.09 µM (inactive)	15.8 µM (inactive)
CC(=O)c1sc2c(c1OC(=O)c1cccs1)c(=O)n(-c1ccccc1)c(=S)n2-c1ccccc1	5.86 µM (inactive)	19.9 µM (inactive)	3.66 µM (inactive)	17 µM (inactive)	23.7 µM (inactive)	2.41 µM (inactive)	23 µM (inactive)	3.9 µM (inactive)	3.54 µM (inactive)	5.24 µM (inactive)	2.8 µM (inactive)	3.24 µM (inactive)	21.9 µM (inactive)	15.2 µM (inactive)	22.4 µM (inactive)	18 µM (inactive)	3.29 µM (inactive)	12.1 µM (inactive)	62.5 µM (inactive)	4.75 µM (inactive)
O=C(Cc1nc2ccccc2[nH]c1=O)c1c[nH]c2ccccc12	13.7 µM (inactive)	13.6 µM (inactive)	49 µM (inactive)	21 µM (inactive)	7.57 µM (inactive)	19.2 µM (inactive)	5.77 µM (inactive)	4.3 µM (inactive)	10.5 µM (inactive)	23.2 µM (inactive)	32.9 µM (inactive)	15.3 µM (inactive)	18.1 µM (inactive)	8.65 µM (inactive)	24.9 µM (inactive)	11.1 µM (inactive)	23.6 µM (inactive)	10.8 µM (inactive)	10.9 µM (inactive)	13.9 µM (inactive)
O=C(O)C1(Cc2ccc3c(c2)CCC3)Cc2ccccc2C1=O (stereo not given)	38.4 µM (inactive)	57.9 µM (inactive)	47.4 µM (inactive)	57.8 µM (inactive)	> 100 µM (inactive)	49.1 µM (inactive)	39.7 µM (inactive)	35.5 µM (inactive)	45.4 µM (inactive)	20.8 µM (inactive)	> 100 µM (inactive)	> 100 µM (inactive)	50.6 µM (inactive)	58.1 µM (inactive)	75.7 µM (inactive)	52.6 µM (inactive)	> 100 µM (inactive)	79.4 µM (inactive)	42.3 µM (inactive)	> 100 µM (inactive)
CC(C)=CCC[C@@H](C)c1c2ncc[nH]c-2c(C)c(=O)c1O	43.6 µM (inactive)	18.7 µM (inactive)	23.2 µM (inactive)	19.2 µM (inactive)	31.1 µM (inactive)	22.2 µM (inactive)	10.6 µM (inactive)	4.53 µM (inactive)	12.4 µM (inactive)	23.8 µM (inactive)	13.8 µM (inactive)	27.9 µM (inactive)	31.8 µM (inactive)	4.49 µM (inactive)	33.1 µM (inactive)	28.8 µM (inactive)	45.6 µM (inactive)	11.7 µM (inactive)	22.1 µM (inactive)	39.4 µM (inactive)
CN(C)Cc1cc(/N=N/c2ccccc2Cl)ccc1O	23.7 µM (inactive)	18.6 µM (inactive)	16.7 µM (inactive)	10.7 µM (inactive)	22.1 µM (inactive)	24.3 µM (inactive)	25.9 µM (inactive)	17.4 µM (inactive)	12.1 µM (inactive)	17.1 µM (inactive)	12.6 µM (inactive)	19.3 µM (inactive)	39.2 µM (inactive)	25.4 µM (inactive)	13.3 µM (inactive)	13.4 µM (inactive)	22.9 µM (inactive)	11.9 µM (inactive)	9.12 µM (inactive)	15.5 µM (inactive)
N#C/C(=C\c1c[nH]c2ccccc12)C(=O)c1ccc(O)c(O)c1	20.4 µM (inactive)	28.8 µM (inactive)	47.2 µM (inactive)	19.2 µM (inactive)	51.2 µM (inactive)	25.6 µM (inactive)	27.7 µM (inactive)	5.87 µM (inactive)	27.8 µM (inactive)	32.1 µM (inactive)	> 47.9 µM (inactive)	38.5 µM (inactive)	43.5 µM (inactive)	20.5 µM (inactive)	32.7 µM (inactive)	32.7 µM (inactive)	33 µM (inactive)	35.5 µM (inactive)	26.1 µM (inactive)	22.8 µM (inactive)
CC(=O)/C=N/CC(=O)O	> 100 µM (inactive)	> 100 µM (inactive)	> 100 µM (inactive)	> 100 µM (inactive)	> 100 µM (inactive)	> 100 µM (inactive)	> 100 µM (inactive)	> 100 µM (inactive)	> 100 µM (inactive)	> 100 µM (inactive)	> 100 µM (inactive)	> 100 µM (inactive)	> 100 µM (inactive)	> 100 µM (inactive)	> 100 µM (inactive)	> 100 µM (inactive)	> 100 µM (inactive)	> 100 µM (inactive)	> 100 µM (inactive)	> 100 µM (inactive)
O=C(O)c1ccccc1/C=N/N=C1c2ccccc2-c2ccccc21	22 µM (inactive)	44.9 µM (inactive)	3.94 µM (inactive)	42.6 µM (inactive)	74.8 µM (inactive)	27.9 µM (inactive)	22.2 µM (inactive)	25.5 µM (inactive)	45.1 µM (inactive)	35.3 µM (inactive)	23.3 µM (inactive)	42.2 µM (inactive)	44.9 µM (inactive)	52.8 µM (inactive)	32.4 µM (inactive)	32.1 µM (inactive)	50.2 µM (inactive)	33.3 µM (inactive)	31.6 µM (inactive)	29.6 µM (inactive)
Cc1ccc2c(=O)c3c(O)c4c(cc3n(C)c2c1)OC(C)(C)C=C4	> 10 µM (inactive)	> 10 µM (inactive)	> 10 µM (inactive)	> 10 µM (inactive)	> 10 µM (inactive)	> 10 µM (inactive)	> 10 µM (inactive)	> 10 µM (inactive)	> 10 µM (inactive)	> 10 µM (inactive)	> 10 µM (inactive)	> 10 µM (inactive)	> 10 µM (inactive)	> 10 µM (inactive)	> 10 µM (inactive)	> 10 µM (inactive)	> 10 µM (inactive)	> 10 µM (inactive)	> 10 µM (inactive)	> 10 µM (inactive)
COc1ccc(C(=O)c2ccc(-n3cc(/C=C/[N+](=O)[O-])c4ccccc43)cc2)cc1	11.3 µM (inactive)	14.4 µM (inactive)	7.57 µM (inactive)	16.1 µM (inactive)	6.3 µM (inactive)	14.7 µM (inactive)	20.7 µM (inactive)	2.58 µM (inactive)	20.1 µM (inactive)	17.9 µM (inactive)	20.2 µM (inactive)	29 µM (inactive)	23.6 µM (inactive)	24.3 µM (inactive)	3.69 µM (inactive)	32.3 µM (inactive)	> 76.4 µM (inactive)	21.6 µM (inactive)	80.4 µM (inactive)	3.52 µM (inactive)
O=C1CN2CCN(CC2)CC(=O)Nc2ccc(cc2)S(=O)(=O)c2ccc(cc2)NC(=O)CN2CCN(CC2)CC(=O)Nc2ccc(cc2)S(=O)(=O)c2ccc(cc2)N1	13.7 µM (inactive)	40.1 µM (inactive)	> 100 µM (inactive)	44.4 µM (inactive)	> 92.7 µM (inactive)	23.3 µM (inactive)	32.2 µM (inactive)	0.31 µM (active)	66.4 µM (inactive)	> 100 µM (inactive)	15.8 µM (inactive)	25.4 µM (inactive)	> 100 µM (inactive)	37.3 µM (inactive)	14.1 µM (inactive)	40.7 µM (inactive)	37.3 µM (inactive)	31.8 µM (inactive)	> 63.2 µM (inactive)	33.3 µM (inactive)
COc1cc2c(cc1OCCCC(=O)Nc1cc(C(=O)Nc3cc(C(=O)Nc4cc(C(=O)NCCCN(C)C)n(C)c4)n(C)c3)n(C)c1)N=C[C@@H]1CCCN1C2=O	1.6 µM (inactive)	2.19 µM (inactive)	2.94 µM (inactive)	3.56 µM (inactive)	1.87 µM (inactive)	3.42 µM (inactive)	16.3 µM (inactive)	0.348 µM (active)	1.61 µM (inactive)	1.88 µM (inactive)	1.82 µM (inactive)	1.66 µM (inactive)	14.6 µM (inactive)	2.22 µM (inactive)	1.69 µM (inactive)	1.61 µM (inactive)	3.16 µM (inactive)	2.24 µM (inactive)	11.2 µM (inactive)	1.12 µM (active)
O=C1c2ccccc2-c2cc([N+](=O)[O-])c([N+](=O)[O-])cc21	1.56 µM (inactive)	1.66 µM (inactive)	3.78 µM (inactive)	1.58 µM (inactive)	1.48 µM (inactive)	0.485 µM (active)	1.61 µM (inactive)	0.243 µM (active)	1.68 µM (inactive)	1.72 µM (inactive)	1.91 µM (inactive)	1.77 µM (inactive)	2.66 µM (inactive)	2.81 µM (inactive)	1.58 µM (inactive)	2.11 µM (inactive)	2.18 µM (inactive)	1.87 µM (inactive)	2.43 µM (inactive)	2.25 µM (inactive)
